Data on one substance can be found in patent US8466202B2, “Anthracenedione compounds” (Sunten Phytotech Co., Ltd., priority 2006, dated 2013).

For this experiment, the system named is healthy male S.D. rats. Put plainly: Feces production in rats given Rheum palmatum Linne extracts for three weeks (Example 2). The conditions noted are these: oral everyday, Rheum palmatum crude extract 500, Bisacodyl 1.75, Sennosides 3.55, STD03 180, STD05-1 12, STD05-2 24 mg/kg; for Water content: feces; for Pellet count / Wet Weight: total of the six rats in the group. The format is in vivo, rat. How it is done: The laxative activities by Rheum palmatum Linne extracts were studied. A crude Rheum palmatum Linne extract and STD05 were obtained from SunTen Phytotech Co., Ltd. (Jhonghe City, Taiwan). Commercial available laxatives, Through® (Chung Mei Pharmaceutical Co., Ltd.; active ingredient: Sennosides 20 mg, as Sennosides A+B 12 mg, Lot. 009A 051) and Dulcolax® (Boehringer Ingelheim, Taiwan, Ltd.; active ingredient: Bisacodyl; Lot. 480-4942) were obtained from a pharmacy.
Forty-two healthy male S.D. rats (8 weeks old; National Laboratory Animal Center, Taiwan) were divided into seven groups (six in each) and tested for the laxative activity by Rheum palmatum Linne extracts. The rats in one group were not fed with any extract or drug and used as negative controls. The rats in the second and third group were given Sennosides (3.55 mg/kg) and Bisacodyl (1.75 mg/kg), respectively, and used as positive controls. The Rats in the other four groups were given Rheum palmatum Linne crude extract (500 mg/kg), filtered crude extract STD03 (180 mg/kg), and STD05 (STD05-1: 12 mg/kg and STD05-2: 24 mg/kg), respectively. All substances were administered orally everyday for three weeks.
The experiments were carried out under conditions in which temperature, humidity, and lighting were all controlled. Each rat was fed standard rat food and water ad libitum in housing that provided a 12-hour light/dark cycle. The rats were divided into seven groups according to the body weights.
The first part of the experiment studied the effect of the above-mentioned extracts on feces production. During the three-week period, any rat that appeared dying was euthanized, dissected, and studied to check for any illness or injures. Any complications or illness were analyzed by H&E stains to determine the cause of death and to allow for dosage reconsiderations for future experiments.
During this period, the body weights of the rats were weighed each day and recorded. Feces of each rat were studied three times during the period for any unusual observations. Specifically, the amounts of feces were weighed on Days 11, 15, 18, and 21. During observation, each rat was placed in a metabolic cage. Feces were collected every twenty-four hours. The number of collected feces pellets was counted, and the pellets' shapes and colors were evaluated. After weighing the moist feces, they were dried in an oven at 100° C. for twenty-four hours. The water content from the feces was calculated according to the following formula: Water content percentage=[(wet weight−dry weight)/wet weight]×100%.
Intestine motility data were expressed as mean±SD. Data were analyzed using the one-way ANOVA method. For comparison within the groups, a Post hoc Comparison was applied. In both feces production and intestine motility analyses, p<0.05 indicates significant differences. For the feces production tests, the data for each group and each time point represent the total wet weight or pellet count of the six rats in the group.

Sennosides came in with a Water content (Day 11) of 52.70%, a Water content (Day 15) of 60.40%, a Water content (Day 18) of 47.30% and a Water content (Day 21) of 44.73%. Also, the Pellet count reads like this: (Day 11) 121; (Day 15) 119; (Day 18) 106; (Day 21) 123. Besides, the “Wet Weight” value (Day 11) is listed as 29.21 g, the “Wet Weight” value (Day 15) was 30.95 g, the “Wet Weight” value (Day 18) is 23.90 g and the “Wet Weight” value (Day 21) is 27.80 g.
